# Earlier results as cited in US20110092601A1, “LYSINE-SPECIFIC DEMETHYLASE INHIBITORS” (THE JOHNS HOPKINS UNIVERSITY, priority 2007, published 2011).
# Tested on: P19 embryonal carcinoma cells
# Settings: P19 embryonal carcinoma cells treated with tranylcypromine
smiles,measurement,value
"N[C@@H]1C[C@H]1c1ccccc1 [tranylcypromine, (1R,2S)-2-phenylcyclopropan-1-amine]",Effect on transcription of the Egr1 and Oct4 genes,transcriptional de-repression of the Egr1 and Oct4 genes
